Laboratory results published in patent publication US9428504B2, “7-hydroxy-spiropipiperidine indolinyl antagonists of P2Y1 receptor” (BRISTOL-MYERS SQUIBB COMPANY, priority 2012, dated 2016).
Structures can show the parent of a compound that is named as a salt. Where two headings read alike, the source gives them in different places.

How the values were obtained:
[1] = molecular target: cloned human P2Y1 receptors (Homo sapiens (Human), UniProt P47900); assay: Binding Assay B: Scintillation Proximity Assay (SPA) for P2Y1 binding
Sequence of cloned human P2Y1 receptors (P47900 whole entry): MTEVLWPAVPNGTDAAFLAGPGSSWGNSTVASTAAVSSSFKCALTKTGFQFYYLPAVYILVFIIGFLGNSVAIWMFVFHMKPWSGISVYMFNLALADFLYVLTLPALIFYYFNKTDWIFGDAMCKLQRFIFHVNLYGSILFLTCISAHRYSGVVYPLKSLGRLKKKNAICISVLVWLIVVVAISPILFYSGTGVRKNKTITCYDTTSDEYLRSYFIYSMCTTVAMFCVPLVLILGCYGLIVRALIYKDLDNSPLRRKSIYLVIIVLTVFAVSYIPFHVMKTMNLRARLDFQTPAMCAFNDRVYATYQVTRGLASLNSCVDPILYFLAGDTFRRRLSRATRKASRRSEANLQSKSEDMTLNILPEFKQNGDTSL
Summary of the method: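 Scintillation proximity readout of 0.3 nM [^33P] tracer displacement from receptor membranes (~15 fmol receptor, 1.7 μg protein). Binding ran 1 h at room temperature to completion; plates were then centrifuged and aqueous phase aspirated before counting.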

[2] = test system: human platelet rich plasma (PRP); assay: ADP induced platelet aggregation assay; details: Homo sapiens, Platelet, read-out: PA IC50 (μM) @ 10 μM ADP, platelet aggregation induced by 10 μM ADP, human PRP
[3] = SPA, [33P] 2MeS-ADP displacement, read-out: P2Y1 Ki (nM) using binding assay B

Row | Structure (SMILES) | Ki [1, 3] | IC50 [2] | Ki [1]
1 | CCN(CC)S(=O)(=O)c1ccc(O)c2c1C1(CCN(CC(C)(C)C)CC1)CN2c1ccccc1NC(=O)Nc1ccc(OC(F)(F)F)cc1 [Example 91, N,N-Diethyl-7-hydroxy-1′-neopentyl-1-(2-(3-(4-(trifluoromethoxy)phenyl)ureido)phenyl)spiro [indoline-3,4′-piperidine]-4-sulfonamide trifluoroacetic acid salt] | 3.4 nM | 0.3 µM | –
2 | CCN(CC)S(=O)(=O)c1ccc(O)c2c1C1(CCN(CC(C)(C)C)CC1)CN2c1ccccc1NC(=O)Nc1nc2ccc(Cl)cc2s1 [Example 92, 1-(2-(3-(6-Chlorobenzo[d]thiazol-2-yl)ureido)phenyl)-N,N-diethyl-7-hydroxy-1′-neopentylspiro[indoline-3,4′-piperidine]-4-sulfonamide] | 15.8 nM | 0.5 µM | –
3 | CC(C)(C)CN1CCC2(CC1)CN(c1ccccc1NC(=O)Nc1nc3ccc(F)cc3s1)c1c(O)cc(F)c(Cl)c12 [Example 93, 1-(2-(4-Chloro-5-fluoro-7-hydroxy-1′-neopentylspiro [indoline-3,4′-piperidine]-1-yl)phenyl)-3-(6-fluorobenzo[d]thiazol-2-yl)urea] | 13.5 nM | 0.5 µM | –
4 | CC(C)(C)CN1CCC2(CC1)CN(c1ccccc1NC(=O)Nc1nc3ccc(F)cc3s1)c1c(O)cc(F)c(F)c12 [Example 95, 1-(2-(4,5-Difluoro-7-hydroxy-1′-neopentylspiro [indoline-3,4′-piperidine]-1-yl)phenyl)-3-(6-fluorobenzo[d]thiazol-2-yl)urea] | 14.7 nM | 0.5 µM | –
5 | CC(C)(C)CN1CCC2(CC1)CN(c1ccccc1NC(=O)Nc1nc3ccc(Cl)cc3s1)c1c(O)cc(F)c(F)c12 [Example 96, l-(6-Chlorobenzo[d]thiazol-2-yl)-3-(2-(4,5-difluoro-7-hydroxy-1′-neopentylspiro[indoline-3,4′-piperidine]-1-yl)phenyl)urea] | 25.8 nM | 0.3 µM | –
6 | Cc1ccc2nc(NC(=O)Nc3ccccc3N3CC4(CCN(CC(C)(C)C)CC4)c4c(Cl)c(F)cc(O)c43)sc2c1 [Example 97, 1-(2-(4-Chloro-5-fluoro-7-hydroxy-1′-neopentylspiro [indoline-3,4′-piperidine]-1-yl)phenyl)-3-(6-melhylbenzo [d]thiazol-2-yl)urea] | 11.5 nM | 0.7 µM | –
7 | CC(C)(C)CN1CCC2(CC1)CN(c1ccccc1NC(=O)Nc1nc3ccc(Cl)cc3s1)c1c(O)c(F)cc(Cl)c12 [Example 98, 1-(2-(4-Chloro-6-fluoro-7-hydroxy-1′-neopentylspiro [indoline-3,4′-piperidine]-1-yl)phenyl)-3-(6-chlorobenzo [d]thiazol-2-yl)urea] | 12.8 nM | 0.9 µM | –
8 | CC(C)CN1CCCC1c1ccc(NC(=O)Nc2ccccc2N2CC3(CCN(CC(C)(C)C)CC3)c3c(F)cc(F)c(O)c32)cc1 (centres unmarked) [Example 99, 1-(2-(4,6-Difluoro-7-hydroxy-1′-neopentylspiro [indoline-3,4′-piperidine]-1-yl)phenyl)-3-(4-(1-isobutylpyrrolidin-2-yl)phenyl)urea] | – | 1.7 µM | 14.2 nM
9 | CC(C)(C)CN1CCC2(CC1)CN(c1ccccc1NC(=O)Nc1nc3ccc(F)cc3s1)c1c(O)c(F)cc(Cl)c12 [Example 100, 1-(2-(4-Chloro-6-fluoro-7-hydroxy-1′-neopentylspiro [indoline-3,4′-piperidine]-1-yl)phenyl)-3-(6-fluorobenzo[d]thiazol-2-yl)urea] | 7.9 nM | 0.2 µM | –
10 | CC(C)(C)CN1CCC2(CC1)CN(c1ccccc1NC(=O)Nc1nc3ccc(Cl)nc3s1)c1c(O)cc(F)c(Cl)c12 [Example 101, 1-(2-(4-Chloro-5-fluoro-7-hydroxy-1′-neopentylspiro [indoline-3,4′-piperidin]-1-yl)phenyl)-3-(5-chlorothiazolo[5,4-b]pyridin-2-yl)urea] | 12.2 nM | 0.9 µM | –
11 | CC(C)(C)CN1CCC2(CC1)CN(c1ccccc1NC(=O)Nc1nc3ccc(F)nc3s1)c1c(O)cc(F)c(Cl)c12 [Example 102, 1-(2-(4-Chloro-5-fluoro-7-hydroxy-1′-neopentylspiro [indoline-3,4′-piperidin]-1-yl)phenyl)-3-(5-fluorothiazolo [5,4-b]pyridin-2-yl)urea] | 12.6 nM | 0.6 µM | –
12 | CC(C)CN1CCCC1c1ccc(NC(=O)Nc2ccccc2N2CC3(CCN(CC(C)(C)C)CC3)c3c(F)c(F)cc(O)c32)cc1 (centres unmarked) [Example 104, 1-(2-(4,5-Difluoro-7-hydroxy-1′-neopentylspiro [indoline-3,4′-piperidine]-1-yl)phenyl)-3-(4-(1-isobutylpyrrolidin-2-yl)phenyl)urea] | 17 nM | 1 µM | –
13 | CC(C)CN1CCC(c2ccc(NC(=O)Nc3ccccc3N3CC4(CCN(CC(C)(C)C)CC4)c4c(Cl)c(F)cc(O)c43)cc2)CC1 [Example 105, 1-(2-(4-Chloro-5-fluoro-7-hydroxy-1′-neopentylspiro [indoline-3,4′-piperidine]-1-yl)phenyl)-3-(4-(1-isobutylpiperidin-4-yl)phenyl)urea] | 12.7 nM | 1.1 µM | –
14 | CC(C)CN1CCC2(CC1)CN(c1ccccc1NC(=O)Nc1ccc(OC(F)(F)F)cc1)c1c(O)ccc(C(F)(F)F)c12 [Example 106, 1-(2-(7-Hydroxy-1′-isobutyl-4-(trifluoromethyl)spiro [indoline-3,4′-piperidine]-1-yl)phenyl)-3-(4-(trifluoromethoxy)phenyl) urea] | 10.6 nM | 0.1 µM | –
15 | CC(C)N1CCC2(CC1)CN(c1ccccc1NC(=O)Nc1ccc(OC(F)(F)F)cc1)c1c(O)ccc(C(F)(F)F)c12 [Example 107, 1-(2-(7-Hydroxy-1′-isopropyl-4-(trifluoromethyl)spiro [indoline-3,4′-piperidine]-1-yl)phenyl)-3-(4-(trifluoromethoxy)phenyl) urea] | 14.4 nM | 0.6 µM | –
16 | COc1ccc2nc(NC(=O)Nc3ccccc3N3CC4(CCN(CC(C)(C)C)CC4)c4c(C(F)(F)F)ccc(O)c43)sc2c1 [Example 108, 1-(2-(7-Hydroxy-1′-neopentyl-4-(trifluoromethyl)spiro [indoline-3,4′-piperidin]-1-yl)phenyl)-3-(6-methoxybenzo [d]thiazol-2-yl)urea] | 14.5 nM | 0.2 µM | –
17 | CC(C)(C)CN1CCC2(CC1)CN(c1ccccc1NC(=O)Nc1csc(Cl)n1)c1c(O)ccc(-c3nc4cc(F)ccc4s3)c12 [Example 112, 1-(2-Chlorothiazol-4-yl)-3-(2-(4-(5-fluorobenzo[d]thiazol-2-yl)-7-hydroxy-1′-neopentylspiro[indoline-3,4′-piperidin]-1-yl)phenyl)urea] | 9.5 nM | 0.2 µM | –
18 | CC(C)(C)CN1CCC2(CC1)CN(c1ccccc1NC(=O)Nc1csc(Cl)n1)c1c(O)ccc(-c3nc4ccc(Cl)cc4s3)c12 [Example 113, 1-(2-(4-(6-Chlorobenzo[d]thiazol-2-yl)-7-hydroxy-1′-neopentylspiro[indoline-3,4′-piperidin]-1-yl)phenyl)-3-(2-chlorothiazol-4-yl)urea] | 7.1 nM | 0.4 µM | –
19 | CC(C)(C)CN1CCC2(CC1)CN(c1ccccc1NC(=O)Nc1csc(Cl)n1)c1c(O)ccc(-c3nc4ccc(F)cc4s3)c12 [Example 114, 1-(2-Chlorothiazol-4-yl)-3-(2-(4-(6-fluorobenzo[d]thiazol-2-yl)-7-hydroxy-1′-neopentylspiro[indoline-3,4′-piperidin]-1-yl)phenyl)urea] | 5.6 nM | 0.1 µM | –
20 | CC(C)(C)CN1CCC2(CC1)CN(c1ccccc1NC(=O)Nc1ccc(OC(F)(F)F)cc1)c1c(O)ccc(-c3nc4c(Cl)cccc4s3)c12 [Example 115, 1-(2-(4-(4-Chlorobenzo[d]thiazol-2-yl)-7-hydroxy-1′-neopentylspiro[indoline-3,4′-piperidin]-1-yl)phenyl)-3-(4-(trifluoromethoxy)phenyl)urea] | 22.8 nM | 1 µM | –
21 | CC(C)(C)CN1CCC2(CC1)CN(c1ccccc1NC(=O)Nc1nc3ccc(F)cc3s1)c1c(O)ccc(-c3nc4c(Cl)cccc4s3)c12 [Example 116, 1-(2-(4-(4-Chlorobenzo[d]thiazol-2-yl)-7-hydroxy-1′-neopentylspiro[indoline-3,4′-piperidin]-1-yl)phenyl)-3-(6-fluorobenzo[b]thiazol-2-yl)urea] | 36.2 nM | 0.6 µM | –
22 | CC(C)(C)CN1CCC2(CC1)CN(c1ccccc1NC(=O)Nc1nc3ccc(Cl)nc3s1)c1c(O)ccc(-c3nc4c(Cl)cccc4s3)c12 [Example 117, 1-(2-(4-(4-Chlorobenzo[d]thiazol-2-yl)-7-hydroxy-1′-neopentylspiro[indoline-3,4′-piperidin]-1-yl)phenyl)-3-(5-chlorothiazolo[5,4-b]pyridin-2-yl)urea] | 29.6 nM | 0.6 µM | –
23 | CC(C)(C)CN1CCC2(CC1)CN(c1ccccc1NC(=O)Nc1csc(Cl)n1)c1c(O)ccc(-c3nc4c(Cl)cccc4s3)c12 [Example 118, 1-(2-(4-(4-Chlorobenzo[d]thiazol-2-yl)-7-hydroxy-1′-neopentylspiro[indoline-3,4′-piperidin]-1-yl)phenyl)-3-(2-chlorothiazol-4-yl)urea] | 15.5 nM | 0.3 µM | –
24 | CC(C)(C)CN1CCC2(CC1)CN(c1ccccc1NC(=O)Nc1csc(Cl)n1)c1c(O)ccc(-c3nc4ccc(Br)cc4s3)c12 [Example 119, 1-(2-(4-(6-Bromobenzo[d]thiazol-2-yl)-7-hydroxy-1′-neopentylspiro[indoline-3,4′-piperidin]-1-yl)phenyl)-3-(2-chlorothiazol-4-yl)urea] | 18.4 nM | 0.3 µM | –
25 | CC(C)(C)CN1CCC2(CC1)CN(c1ccccc1NC(=O)Nc1csc(C(F)(F)F)n1)c1c(O)ccc(-c3nc4cc(Cl)ccc4s3)c12 [Example 120, 1-(2-(4-(5-Chlorobenzo[d]thiazol-2-yl)-7-hydroxy-1′-neopentylspiro[indoline-3,4′-piperidin]-1-yl)phenyl)-3-(2-(trifluoromethyl)thiazol-4-yl)urea] | 28.5 nM | 0.6 µM | –
